Laboratory results as given in patent US20030050470A1, “Biomarkers and targets for diagnosis, prognosis and management of prostate disease, bladder and breast cancer” (UroCor, Inc., priority 1996, published 2003).
Read-outs that look alike come from different tables or passages of the source.

How the values were obtained:
[1] = tested on: UC 28 gene message in LnCaP cells; settings: charcoal stripped serum 48 hours, DHT 0, 0.1, 1, 10 and 100 nM for 24 hours, normalized to β-actin
Experimental: FIG. 17. […] LnCaP cells were cultured in RPMI-1640 with 10% charcoal stripped serum for 48 hours prior to treatment. The cells were incubated in DHT for 24 hours. […] RT-PCR message was normalized to β-actin.
Since hormones regulate both prostate and mammary glands, the possibility that expression of this gene is modified by androgen was examined.

[2] = tested on: PSMA messenger RNA in LNCAP prostate cancer cell line; settings: LNCAP cells after exposure (Israeli et al., 1994); cited from earlier work
B 16 melanoma cell line = B 16 melanoma cell line (Rieber & Rieber, 1994); cited from earlier work
[3] = tested on: cyclin A in DU-145 prostate carcinoma cell line; settings: DU-145 cells (Qiao et al., 1994); cited from earlier work

In the case of `C[C@]12CCC(=O)C[C@@H]1CC[C@@H]1[C@@H]2CC[C@]2(C)[C@@H](O)CC[C@@H]12` [DHT, dihydrotestosterone], the “UC 28 gene expression (UC 28 message level by RT-PCR)” value [1] is listed as “increasing UC 28 message level”, the “UC 28 gene expression (UC 28 message level by RT-PCR)” value ([1]; listed as dihydrotestosterone) is listed as “stimulated by dihydrotestosterone (DHT) in a time and dosage-dependent manner” and the “PSMA mRNA down-regulation” value [2] is listed as 8-10 fold.

For `N[C@@H](Cc1ccc(O)cc1)C(=O)O` [L-tyrosine], the “cyclin A activity” value (B 16 melanoma cell line) is listed as “decrease in cyclin A activity” and the “melanogenesis and replicative senescence” value (B 16 melanoma cell line) is listed as “promote increased melanogenesis and replicative senescence”.

For `Cc1ccc(C(=O)Nc2ccc(S(=O)(=O)O)c3cc(S(=O)(=O)O)cc(S(=O)(=O)O)c23)cc1NC(=O)c1cccc(NC(=O)Nc2cccc(C(=O)Nc3cc(C(=O)Nc4ccc(S(=O)(=O)O)c5cc(S(=O)(=O)O)cc(S(=O)(=O)O)c45)ccc3C)c2)c1` [Suramin], the “expression of cyclin A” value [3] is given as “reduces the expression of cyclin A”.
